Measured values as given in BindingDB's records for doi:10.1021/acs.jnatprod.8b00318 (Indian Institute of Integrative Medicine (Csir), 2019).
pIC50: −log10 of the molar value.

Assays:
[1] = biological target: Prostaglandin G/H synthase 1 (Ovis aries) (UniProt P05979); assay: Inhibition of ovine COX1 assessed as reduction in prostaglandin E2 production incubated for 10 mins before arachidonic acid addition and measured after 25 mins by LC-MS/MS analysis
[2] = biological target: Prostaglandin G/H synthase 2 (Homo sapiens) (UniProt P35354); assay: Inhibition of COX2 (unknown origin) assessed as reduction in prostaglandin E2 production incubated for 10 mins before arachidonic acid addition and measured after 25 mins by LC-MS/MS analysis
Prostaglandin G/H synthase 2 (Homo sapiens), sequence (P35354 whole entry, looked up): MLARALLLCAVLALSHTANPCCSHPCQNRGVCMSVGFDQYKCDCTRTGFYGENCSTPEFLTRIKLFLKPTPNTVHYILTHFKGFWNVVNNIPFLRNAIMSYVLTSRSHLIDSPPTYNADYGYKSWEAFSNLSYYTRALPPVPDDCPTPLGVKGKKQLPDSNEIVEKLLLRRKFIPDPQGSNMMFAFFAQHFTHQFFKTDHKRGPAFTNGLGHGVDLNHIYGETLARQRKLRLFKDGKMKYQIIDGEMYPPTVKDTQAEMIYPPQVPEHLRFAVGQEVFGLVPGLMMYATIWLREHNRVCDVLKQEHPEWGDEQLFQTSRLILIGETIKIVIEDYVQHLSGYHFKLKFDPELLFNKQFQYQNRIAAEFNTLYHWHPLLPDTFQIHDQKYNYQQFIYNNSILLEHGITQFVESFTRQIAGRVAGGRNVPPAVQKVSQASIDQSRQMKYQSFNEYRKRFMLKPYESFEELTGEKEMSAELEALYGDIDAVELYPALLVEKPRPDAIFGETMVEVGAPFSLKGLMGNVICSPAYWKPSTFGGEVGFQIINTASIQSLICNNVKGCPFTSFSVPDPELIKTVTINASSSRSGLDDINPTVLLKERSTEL

- pIC50 [1]: 4.51
- pIC50 [2]: 4.18
Structure (SMILES): COC(=O)[C@@H](C)c1ccc2c(C)cc(O)c(C)c2c1
